Consider five compounds from patent publication US6221858A, “Pyridyl-and pyrimidyl-piperazines in the treatment of substance abuse disorders” (priority 1996, dated 2001).

Where a name gives a salt, the structure may show the parent alone. Read-outs that look alike come from different tables or passages of the source.

For orientation: Ki means a measure of affinity in units of concentration, obtained from inhibition or displacement. Read a high Ki as a looser hold on the target. By IC50 is commonly meant the concentration at which inhibition is half-maximal.

For one data set, the target named is T1, 5-HT1A Sites (Rattus norvegicus, UniProt P19327).
T1 sequence (P19327 1-422): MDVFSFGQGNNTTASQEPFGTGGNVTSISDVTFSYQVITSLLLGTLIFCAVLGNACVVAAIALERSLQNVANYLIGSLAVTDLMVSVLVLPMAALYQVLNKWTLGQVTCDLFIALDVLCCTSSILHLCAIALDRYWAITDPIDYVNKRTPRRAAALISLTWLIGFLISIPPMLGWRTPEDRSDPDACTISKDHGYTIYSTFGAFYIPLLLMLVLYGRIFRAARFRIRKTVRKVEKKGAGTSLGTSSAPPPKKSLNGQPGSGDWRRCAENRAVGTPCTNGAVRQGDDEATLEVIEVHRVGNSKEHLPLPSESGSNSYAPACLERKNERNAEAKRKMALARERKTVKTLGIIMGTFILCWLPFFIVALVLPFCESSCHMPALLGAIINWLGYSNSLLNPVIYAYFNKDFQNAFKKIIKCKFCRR
Briefly: biochemical. The class given is binding.

In another data set the target is T2, 5-HT2A Sites (Rattus norvegicus, UniProt P14842).
T2 construct: Radioligand: ^3 H-Ketanserin Tissue: Cerebral cortex; from tissue; host or cells: cerebral cortex
Briefly: Drug affinity for 5-HT2A sites (3H-Ketanserin binding, cerebral cortex). As to conditions: Radioligand 3H-Ketanserin; tissue cerebral cortex.

Data set [1] deals with alcohol preferring (P) rats. Briefly: Effect on alcohol intake in alcohol preferring (P) rats. The class given is in vivo, rat. As for the experimental part: To further illustrate the useful pharmacological properties of compounds of formula (I), the effect of Compound A administered systematically was determined in alcohol preferring (P) rats. Because of its pattern of drinking, the P animal seems to represent a valid genetically based model to approximate the human condition of alcoholism (McBride et al., Alcohol 7:199-205, 1990; Lankford et al., Pharmacol. Biochem. Behav. 8:293-299,1991). After maximally preferred alcohol concentrations had stabilised for four days, Compound A in a dose of 2.5 and 10 mg/kg was administered twice a day over four consecutive days. […] The highest dose of Compound A reduced intake of alcohol by >40%.

The target of data set [2] is T3, [3H]-5-HT uptake by synaptosomes from rat frontal cortex (Rattus norvegicus, UniProt P31652).
T3 construct: synaptosomes from rat frontal cortex; from tissue; host or cells: rat frontal cortex synaptosomes
In words: Uptake of [3H]-5-HT by synaptosomes from rat frontal cortex. Type of data set: biochemical.

The next data set concerns monkeys. As to conditions: cited from earlier work.
Data set [3] relates to alcohol-dependent individuals. To be noted: compared to placebo; cited from earlier work.
In a further data set the test system is rats. To be noted: cited from earlier work.
[4] abbreviates: Radioligand 3H-8-OH-DPAT, tissue hippocampus.

T2 sequence (P14842 whole entry): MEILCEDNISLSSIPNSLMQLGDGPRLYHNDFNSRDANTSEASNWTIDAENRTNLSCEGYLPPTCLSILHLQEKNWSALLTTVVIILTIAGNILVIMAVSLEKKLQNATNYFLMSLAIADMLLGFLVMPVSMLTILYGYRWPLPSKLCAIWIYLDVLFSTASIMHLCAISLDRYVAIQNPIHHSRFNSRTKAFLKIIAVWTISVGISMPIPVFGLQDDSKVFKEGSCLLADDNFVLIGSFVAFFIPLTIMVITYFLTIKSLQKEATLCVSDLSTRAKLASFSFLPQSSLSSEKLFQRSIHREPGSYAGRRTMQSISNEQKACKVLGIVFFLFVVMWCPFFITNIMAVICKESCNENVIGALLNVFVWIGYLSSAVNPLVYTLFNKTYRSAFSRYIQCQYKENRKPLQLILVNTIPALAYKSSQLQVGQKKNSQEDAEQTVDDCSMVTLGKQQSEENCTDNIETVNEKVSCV
T3 sequence (P31652 whole entry): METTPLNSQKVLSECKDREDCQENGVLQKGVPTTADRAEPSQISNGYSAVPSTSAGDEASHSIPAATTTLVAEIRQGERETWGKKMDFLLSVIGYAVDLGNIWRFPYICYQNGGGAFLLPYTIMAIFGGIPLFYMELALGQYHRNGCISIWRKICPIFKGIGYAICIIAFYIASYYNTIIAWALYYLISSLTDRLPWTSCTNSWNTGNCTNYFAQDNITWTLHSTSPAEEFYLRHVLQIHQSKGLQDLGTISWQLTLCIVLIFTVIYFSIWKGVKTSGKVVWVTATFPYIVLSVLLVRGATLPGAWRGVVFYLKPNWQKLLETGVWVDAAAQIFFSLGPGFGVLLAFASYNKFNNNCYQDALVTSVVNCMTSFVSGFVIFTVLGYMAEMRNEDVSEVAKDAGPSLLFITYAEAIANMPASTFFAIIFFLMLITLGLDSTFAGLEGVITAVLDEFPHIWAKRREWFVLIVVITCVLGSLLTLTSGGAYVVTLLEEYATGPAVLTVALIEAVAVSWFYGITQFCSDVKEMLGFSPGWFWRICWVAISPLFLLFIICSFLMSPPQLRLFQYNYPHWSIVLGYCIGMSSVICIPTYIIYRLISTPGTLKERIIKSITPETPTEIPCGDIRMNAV

As for `CCOc1cccnc1N1CCN(CCCCc2ccc(F)cc2)CC1` [Compound B, 1-[4-(p-fluorophenyl)-butyl]-4-(3-ethoxy-2-pyridinyl)-piperazine fumarate], the results for the Ki on 5-HT1A Sites (setting [4]) and at 5-HT2A Sites were 1.7 nM and 1.6 nM, respectively.
For the compound `Cc1cccc(N2CCN(CCCCc3ccc(F)cc3)CC2)n1.O=C(O)/C=C/C(=O)O` [Compound A, 1-[4-(p-fluorophenyl)-butyl]-4-(6-methyl-2-pyridinyl)-piperazine fumarate], the Ki at 5-HT1A Sites (setting [4]) was 0.9 nM; at 5-HT2A Sites it was 10 nM. In addition, in data set [1] (after Compound A injections), the “Food and water after injections” value is given as “returned to pre-drug levels”. The “Intake of alcohol (absolute g/kg and proportion of alcohol to total fluid intake)” value in data set [1] (both doses, 2.5 and 10 mg/kg twice a day over four days, during administration) is “significantly reduced”. In addition, in data set [1] (each dose, during the period of injection), the “Ingestion of food and water” value is “increased the ingestion of food and water above pre-treatment levels”. The “Alcohol intakes after administration versus pre-treatment level” value in data set [1] (five days following administration, intakes rebounded) is recorded as “still being significantly lower than those of the pre-treatment level”. Besides, in data set [1] (highest dose (10 mg/kg) twice a day over four consecutive days), the “Reduction of intake of alcohol” value is greater than 40%. This compound also returned a half-maximal inhibitory concentration (IC50) in data set [2] of 12000 nM.
In the case of `O=C1CC2(CCCC2)CC(=O)N1CCCCN1CCN(c2ncccn2)CC1` [Buspirone], in the data set with monkeys, the Consumption of alcohol result is on record as “attenuate significantly”. In addition, in data set [3], the Drop-out rate result was “lower drop-out rate” and the Signs of craving entry was “fewer signs of craving”.
Take `CCNC(=O)N1CCN(CCCC(c2ccc(F)cc2)c2ccc(F)cc2)CC1` [Amperozide, reference compound]: the Ki came out at 805 nM at 5-HT1A Sites and 16 nM on 5-HT2A Sites. Further, the Intake of alcohol entry in the data set with rats is “significantly attenuate”. Besides, the IC50 in data set [2] was 320 nM.
For `COC(=O)c1cccnc1N1CCN(CCCC(c2ccc(F)cc2)c2ccc(F)cc2)CC1` [FG5893, 2-[4-[4,4-bis(4-fluorophenyl)butyl]-1-piperazinyl]-3-pyridine-carboxylic acid methyl ester dihydrochloride ethylat, reference compound], the Ki on 5-HT1A Sites (setting [4]) was determined as 0.7 nM. In addition, the half-maximal inhibitory concentration (IC50) in data set [2] (synaptosomes from rat frontal cortex, concentration which inhibits the uptake by 50%, read-out: IC50, uptake of [3H]-5-HT) was 80 nM.
